# Test results: patent publication US12263171B2, “7-, 8-, and 10-substituted amino triazolo quinazoline derivatives as adenosine receptor antagonists, pharmaceutical compositions and their use” (Merck Sharp & Dohme LLC, priority 2018, dated 2025)
# Legend:
# [1] = biological target: human A2b adenosine receptor (Homo sapiens (Human), UniProt P29275); assay: A2b radioligand filtration binding assay (tritiated proprietary A2b antagonist, HEK293 membranes); conditions: for IC50: unstarred values: radioligand binding; for A2B binding % inh. @ 10000 nM: unstarred
# Chain of human A2b adenosine receptor (P29275 whole entry): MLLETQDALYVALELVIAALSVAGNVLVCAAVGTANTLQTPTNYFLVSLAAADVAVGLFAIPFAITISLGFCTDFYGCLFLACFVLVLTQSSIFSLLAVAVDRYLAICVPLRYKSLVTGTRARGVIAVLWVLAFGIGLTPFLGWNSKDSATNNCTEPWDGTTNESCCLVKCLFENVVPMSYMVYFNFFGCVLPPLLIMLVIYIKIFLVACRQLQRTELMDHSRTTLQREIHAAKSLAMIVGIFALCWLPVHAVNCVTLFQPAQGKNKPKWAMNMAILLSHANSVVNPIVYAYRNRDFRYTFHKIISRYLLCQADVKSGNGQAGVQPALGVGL
# Outline: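 Displacement of a tritiated proprietary A2b antagonist from membranes of HEK293 cells recombinantly expressing human A2b receptor, measured by filtration and scintillation counting. Percent effect was normalized to total and non-specific binding and fitted with a 4-parameter logistic to give IC50.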
# [2] = biological target: human A2a adenosine receptor (Homo sapiens (Human), UniProt P29274); assay: A2a receptor affinity radioligand binding assay ([3H] SCH58261, membranes from HEK293 or CHO cells); conditions: unstarred values: radioligand binding
# Chain of human A2a adenosine receptor (P29274 whole entry): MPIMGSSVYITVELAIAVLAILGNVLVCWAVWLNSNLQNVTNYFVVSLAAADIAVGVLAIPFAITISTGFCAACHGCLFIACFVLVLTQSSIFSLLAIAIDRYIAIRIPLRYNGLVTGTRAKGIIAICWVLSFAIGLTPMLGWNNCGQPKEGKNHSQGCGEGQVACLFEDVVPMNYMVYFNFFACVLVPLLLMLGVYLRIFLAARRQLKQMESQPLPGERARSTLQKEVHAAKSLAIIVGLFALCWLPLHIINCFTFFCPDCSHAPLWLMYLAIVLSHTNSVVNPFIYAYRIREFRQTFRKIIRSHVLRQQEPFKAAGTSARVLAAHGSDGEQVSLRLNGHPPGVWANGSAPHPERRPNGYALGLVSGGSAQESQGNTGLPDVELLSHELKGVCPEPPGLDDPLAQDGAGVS
# Outline: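 Displacement of tritiated SCH58261 (working dilution 4 nM) from recombinant human A2a receptor membranes (HEK293 or CHO), 60 min at room temperature in Tris pH 7.4/MgCl2 buffer after 15–30 min compound preincubation. Scintillation counting after filtration; normalized percent effect fitted 4-parameter logistic for IC50.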
Structure (SMILES),IC50 [1],IC50 [2],A2B binding % inh. @ 10000 nM [1]
"COc1cccc2c1nc(N)n1nc([C@@H]3CCCN(c4cn(CC(F)(F)F)nn4)C3)nc21 [Example 73, (R)-7-methoxy-2-(1-(1-(2,2,2-trifluoroethyl)-1H-1,2,3-triazol-4-yl)piperidin-3-yl)-[1,2,4]triazolo[1,5-c]quinazolin-5-amine]",1.9 nM,0.8 nM,–
"COc1cccc2c1nc(N)n1nc([C@@H]3CCCN(c4cnn(C5CCCC5O)c4)C3)nc21 (single isomer, unassigned) [Example 58B]",34.9 nM,0.2 nM,–
"COc1cccc2c1nc(N)n1nc([C@@H]3CCCN(c4cnn(CC(F)(F)F)c4)C3)nc21 [Example 9, (R)-7-methoxy-2-(1-(1-(2,2,2-trifluoroethyl)-1H-pyrazol-4-yl)piperidin-3-yl)-[1,2,4]triazolo[1,5-c]quinazolin-5-amine]",1 nM,0.7 nM,–
"COc1cccc2c1nc(N)n1nc([C@@H]3CCCN(c4cc(C(F)(F)F)c(=O)n(C)c4)C3)nc21 [Example 99, (R)-5-(3-(5-amino-7-methoxy-[1,2,4]triazolo[1,5-c]quinazolin-2-yl)piperidin-1-yl)-1-methyl-3-(trifluoromethyl)pyridin-2(1H)-one]",98.4 nM,0.6 nM,–
"Cn1cc(N2CCCC(c3nc4c5c(F)ccc(F)c5nc(N)n4n3)C2)cn1 (single isomer, unassigned) [Example 172, (R or S)-7,10-difluoro-2-(1-(1-methyl-1H-pyrazol-4-yl)piperidin-3-yl)-[1,2,4]triazolo[1,5-c]quinazolin-5-amine]",375 nM,34.2 nM,–
CCn1cc(N2C[C@@H](c3nc4c5cccc(OC)c5nc(N)n4n3)CC[C@@H]2C)cn1 [Example 140C],11.2 nM,0.6 nM,–
"COc1cccc2c1nc(N)n1nc(C3CN(c4cn(CC(C)(C)O)nc4C)CC(F)(F)C3)nc21 (single isomer, unassigned) [Example 158B, (R or S)1-(4-(5-(5-amino-7-methoxy-[1,2,4]triazolo[1,5-c]quinazolin-2-yl)-3,3-difluoropiperidin-1-yl)-3-methyl-1H-pyrazol-1-yl)-2-methylpropan-2-ol]",526 nM,0.4 nM,–
"COc1cccc2c1nc(N)n1nc([C@@H]3CCCN(c4cnc(C5CC5)cn4)C3)nc21 [Example 105, (R)-2-(1-(5-cyclopropylpyrazin-2-yl)piperidin-3-yl)-7-methoxy-[1,2,4]triazolo[1,5-c]quinazolin-5-amine]",165 nM,0.7 nM,–
"COc1ccc2c(c1)nc(N)n1nc([C@@H]3C[C@H](F)CN(c4cn(CC(C)(C)O)nc4C)C3)nc21 [Example 197B, 1-(4-((3R,5S)-3-(5-amino-8-methoxy-[1,2,4]triazolo[1,5-c]quinazolin-2-yl)-5-fluoropiperidin-1-yl)-3-methyl-1H-pyrazol-1-yl)-2-methylpropan-2-ol]",1370 nM,0.4 nM,–
"COc1cccc2c1nc(N)n1nc([C@@H]3CCCN(c4cnn(C5CCCC5(C)O)c4)C3)nc21 (single isomer, unassigned) [Example 59A]",6.3 nM,0.4 nM,–
"COc1cccc2c1nc(N)n1nc(C3CC(F)CN(c4cnn(CC(C)(C)O)c4C)C3)nc21 (stereo not drawn) [Example 152, 1-(4-(3-(5-amino-7-methoxy-[1,2,4]triazolo[1,5-c]quinazolin-2-yl)-5-fluoropiperidin-1-yl)-5-methyl-1H-pyrazol-1-yl)-2-methylpropan-2-ol]",–,249 nM,38% inh. @ 10000 nM
"Cn1cc(N2CCCC(c3nc4c5ccc(F)cc5nc(N)n4n3)C2)cn1 (single isomer, unassigned) [Example 168, (R or S)-8-fluoro-2-(1-(1-methyl-1H-pyrazol-4-yl)piperidin-3-yl)-[1,2,4]triazolo[1,5-c]quinazolin-5-amine]",150 nM,17.4 nM,–
"COc1cccc2c1nc(N)n1nc([C@@H]3CCCN(c4cn(C)nn4)C3)nc21 [Example 67, (R)-7-methoxy-2-(1-(1-methyl-1H-1,2,3-triazol-4-yl)piperidin-3-yl)-[1,2,4]triazolo[1,5-c]quinazolin-5-amine]",2 nM,1 nM,–
"COc1ccc2c(c1)nc(N)n1nc([C@@H]3CC[C@H](C)N(c4cnn([C@@H](C)C(C)(C)O)c4)C3)nc21 [Example 211A, (S)-3-(4-((2S,5R)-5-(5-amino-8-methoxy-[1,2,4]triazolo[1,5-c]quinazolin-2-yl)-2-methylpiperidin-1-yl)-1H-pyrazol-1-yl)-2-methylbutan-2-ol]",3.4 nM,0.5 nM,–
COc1cccc2c1nc(N)n1nc([C@@H]3CCCN(c4cnn(C5CCCC5O)c4)C3)nc21 (stereo partly drawn) [Example 58A],64.9 nM,0.2 nM,–
"COc1cccc2c1nc(N)n1nc([C@@H]3CCCN(c4ncccn4)C3)nc21 [Example 117, (R)-7-methoxy-2-(1-(pyrimidin-2-yl)piperidin-3-yl)-[1,2,4]triazolo[1,5-c]quinazolin-5-amine]",431 nM,0.9 nM,–
"COc1cccc2c1nc(N)n1nc([C@@H]3CCCN(c4cnn(CC5(O)CCCCC5)c4)C3)nc21 [Example 44, (R)-1-((4-(3-(5-amino-7-methoxy-[1,2,4]triazolo[1,5-c]quinazolin-2-yl)piperidin-1-yl)-1H-pyrazol-1-yl)methyl)cyclohexan-1-ol]",132 nM,1.2 nM,–
"CCn1cc(N2C[C@@H](c3nc4c5cccc(OC)c5nc(N)n4n3)CC[C@H]2C)cn1 (single isomer, unassigned) [Example 140A]",5510 nM,66.8 nM,–
COc1cccc2c1nc(N)n1nc(C3CCCN(c4cnn(C)c4)[C@@H]3C)nc21 (stereo partly drawn) [Example 128B],–,6300 nM,14% inh. @ 10000 nM
"Cn1cc(N2CCCC(c3nc4c5c(C(F)(F)F)cccc5nc(N)n4n3)C2)cn1 (single isomer, unassigned) [Example 170, (R or S)-2-(1-(1-methyl-1H-pyrazol-4-yl)piperidin-3-yl)-10-(trifluoromethyl)-[1,2,4]triazolo[1,5-c]quinazolin-5-amine]",–,204 nM,28% inh. @ 10000 nM
"COc1ccc2c(c1)nc(N)n1nc(C3CCCCN(c4cnn(CC(C)(C)O)c4)C3)nc21 (stereo not drawn) [Example 217, 1-(4-(3-(5-amino-8-methoxy-[1,2,4]triazolo[1,5-c]quinazolin-2-yl)azepan-1-yl)-1H-pyrazol-1-yl)-2-methylpropan-2-ol]",207 nM,4.6 nM,–
"COc1cccc2c1nc(N)n1nc([C@@H]3CCCN(c4cnccn4)C3)nc21 [Example 102, (R)-7-methoxy-2-(1-(pyrazin-2-yl)piperidin-3-yl)-[1,2,4]triazolo[1,5-c]quinazolin-5-amine]",151 nM,1 nM,–
"COc1ccc2c(c1)nc(N)n1nc([C@@H]3CCCN(c4cnn(C(C)(C)CO)c4)C3)nc21 [Example 188, (R)-2-(4-(3-(5-amino-8-methoxy[1,2,4]triazolo[1,5-c]quinazolin-2-yl)piperidin-1-yl)-1H-pyrazol-1-yl)-2-methylpropan-1-ol]",44.6 nM,0.7 nM,–
"COc1ccc2c(c1)nc(N)n1nc([C@@H]3CCCN(c4cnn([C@H](C)C(C)(C)O)c4C)C3)nc21 [Example 189A, (R)-3-(4-((R)-3-(5-amino-8-methoxy[1,2,4]triazolo[1,5-c]quinazolin-2-yl)piperidin-1-yl)-5-methyl-1H-pyrazol-1-yl)-2-methylbutan-2-ol]",228 nM,0.6 nM,–
"COc1ccc2c(c1)nc(N)n1nc([C@@H]3CC[C@H](C)N(c4cnn(C5CCC[C@@H]5O)c4)C3)nc21 (single isomer, unassigned) [Example 210B]",3.2 nM,0.1 nM,–
"COc1cccc2c1nc(N)n1nc([C@@H]3CCC[C@H](c4cnn(CC(C)(C)O)c4)C3)nc21 (single isomer, unassigned) [Example 137, 1-(4-((1S,3R or 1R,3S)-3-(5-amino-7-methoxy-[1,2,4]triazolo[1,5-c]quinazolin-2-yl)cyclohexyl)-1H-pyrazol-1-yl)-2-methylpropan-2-ol]",8650 nM,120 nM,–
"COc1cccc2c1nc(N)n1nc(C3CN(c4cnn(CC(C)(C)O)c4C)CC(F)(F)C3)nc21 (single isomer, unassigned) [Example 159B, (R or S)-1-(4-(5-(5-amino-7-methoxy-[1,2,4]triazolo[1,5-c]quinazolin-2-yl)-3,3-difluoropiperidin-1-yl)-5-methyl-1H-pyrazol-1-yl)-2-methylpropan-2-ol]",792 nM,0.1 nM,–
"COc1ccc2c(c1)nc(N)n1nc([C@@H]3CCCN(c4cnn(CC(C)(C)O)c4)C3)nc21 [Example 179, (R)-1-(4-(3-(5-amino-8-methoxy-[1,2,4]triazolo[1,5-c]quinazolin-2-yl)piperidin-1-yl)-1H-pyrazol-1-yl)-2-methylpropan-2-ol]",103 nM,3.5 nM,–
"COc1cccc2c1nc(N)n1nc([C@@H]3CCCN(c4cnn([C@H]5C[C@@](C)(O)C5)c4)C3)nc21 [Example 35, (R)-3-(4-(3-(5-amino-7-methoxy-[1,2,4]triazolo[1,5-c]quinazolin-2-yl)piperidin-1-yl)-1H-pyrazol-1-yl)-1-methylcyclobutan-1-ol]",41.9 nM,0.7 nM,–
"COc1cccc2c1nc(N)n1nc([C@@H]3CCCN(c4nn(C)nc4C)C3)nc21 [Example 70, (R)-2-(1-(2,5-dimethyl-2H-1,2,3-triazol-4-yl)piperidin-3-yl)-7-methoxy-[1,2,4]triazolo[1,5-c]quinazolin-5-amine]",151 nM,0.8 nM,–
